In patent US6342515B1, “Remedy for neurodegenerative diseases” (Dainippon Pharmaceutical Co., Ltd., priority 1997, dated 2002):
Marks after values point to notes of the source that are not given here.

Experiments:
C57 black male mice [1] = experiment: Inhibitory effect on MPTP-induced dopaminergic neurodegeneration (striatal DA and DOPAC by HPLC); type: in vivo, mouse; details: for Inhibitory Rate (%) DA / Inhibitory Rate (%) DOPAC / DA (ng/g tissue) / DOPAC (ng/g tissue): striatum, 24 hours after last MPTP; for DA (ng/g tissue) / DOPAC (ng/g tissue): mean ± standard error; for inhibitory effect on the MPTP-induced reduction in the contents of dopamine and DOPAC in the striatum: po
Method: (§1) In each experiment, the contents of monoamine neurotransmitters and metabolites thereof in the striatum were measured by high performance liquid chromatography (HPLC) method. HPLC was carried out using a system consisting of a pump (L-6000, manufactured by Hitachi, Ltd., Japan), an autoinjector, a column (Cosmosil 5C18-A, manufactured by Nacalai Tesque, Inc., Japan; 4.6Ø×250 mm), and an electrochemical detector (ECD-100, manufactured by Eicom Corporation, Japan) under the following conditions.
In addition, the statistical analysis was carried out by Dunnett's multiple comparison test.
(§2) C57 black male mice (11-week-old) were used in the experiment. MPTP hydrochloride was dissolved in a physiological saline solution in a concentration of 3 mg/ml, and the resulting solution was intraperitoneally injected to the mice in a volume of 0.1 ml per 10 g of body weight, i.e., at a dose of 30 mg/kg, once a day for 8 days repetitively. […]
(§3) The striatum excised was homogenized with a 50-fold volume of 0.1 N formic acid:acetone (15:85) containing an internal standard substance (5-hydroxytriptophol; 20 ng/ml), and the mixture was centrifuged under cooling. A fixed amount of the supernatant was collected and evaporated to dryness under stream of nitrogen gas. Then, the resultant was dissolved in a 0.01 N acetic acid and centrifuged, and then the contents of various monoamine neurotransmitters and metabolites thereof in the supernatant were measured by HPLC being equipped with an electrochemical detector.
MPTP hydrochloride was intraperitoneally administered to C57 black male mice (11-week-old) at a dose of 30 mg/kg once a day for 8 days repetitively in the same manner as in Experiment 1. The test drugs, i.e., antiepileptic agents, were suspended in a 0.5% aqueous tragacanth solution, and the resultant was orally administered to the mice in a volume of 0.1 ml per 10 g of body weight 30 minutes prior to the MPTP administration for 8 days. […] The contents of dopamine and a metabolite thereof in the striatum were measured in the same manner as in Experiment 1. […] The dosages for each administration of various antiepileptic agents are shown below. […] Forsch. (Drug Res.), 30, 477 (1980) for other antiepileptic agents were employed, respectively.
The inhibitory rate was calculated from the values in the normal animal group, the vehicle-treated group and the test drug-treated group. The values in Table represent a mean value ± a standard error, and the marks * and ** mean that there is a significant difference from the value of the vehicle-treated group with p<0.05 and p<0.01, respectively.
The perpendicular lines in the figures represent standard errors, and the marks * and ** mean that there is a significant difference from the value of the vehicle-treated group with p<0.05 and p<0.01, respectively.

C57 black mice = details: MPTP hydrochloride 15 mg/kg s.c. once; cited from earlier work
C57 black male mice [2] = experiment: Preparation of animal model for Parkinson's disease: striatal monoamine neurotransmitters and metabolites after MPTP; type: in vivo, mouse; details: MPTP hydrochloride 30 mg/kg ip once a day for 8 days
Method: as §1, §2, §3
The changes in the contents of various neurotransmitters and metabolites thereof 24 hours after the last MPTP administration are shown in FIG. 1. The number of animals in each group is 8, and the perpendicular lines in the figures represent standard errors, and the mark ** means that there is a significant difference from the value of the control group (the group treated with a physiological saline solution) with p<0.01.

[3] = 14-days group (14 days after the last MPTP administration), in words (FIG. 2)
[4] = 24-hours group, in words (Table 1)
[5] = 24 hours after last administration (FIG. 1)
[6] = 100 mg/kg po for 8 days, 100 mg/kg
[7] = 100 mg/kg po for 8 days, listed as zonisamide, 100 mg/kg

SMILES: CC(=O)Nc1nnc(S(N)(=O)=O)s1 [AZA, Acetazolamide]
- Inhibitory Rate (%) DA (C57 black male mice [1]; 100 mg/kg po for 8 days): −4.1%
- Inhibitory Rate (%) DOPAC (C57 black male mice [1]; 100 mg/kg po for 8 days): 1.2%
- DA (ng/g tissue) (C57 black male mice [1]; 100 mg/kg po for 8 days): 1803 ± 428 ng/g tissue
- DOPAC (ng/g tissue) (C57 black male mice [1]; 100 mg/kg po for 8 days): 138 ± 23 ng/g tissue

SMILES: NC(=O)N1c2ccccc2C=Cc2ccccc21 [CBZ, Carbamazepine]
- inhibitory effect on the MPTP-induced reduction in the contents of dopamine and DOPAC in the striatum (C57 black male mice [1]; [3]): did not show any significant inhibitory effect
- inhibitory effect on the MPTP-induced reduction in the contents of dopamine and DOPAC in the striatum (C57 black male mice [1]; [4]): did not show any significant inhibitory effect
- Inhibitory Rate (%) DA (C57 black male mice [1]; 20 mg/kg po for 8 days): 25.0%
- DA (ng/g tissue) (C57 black male mice [1]; 20 mg/kg po for 8 days): 3087 ± 453 ng/g tissue
- DOPAC (ng/g tissue) (C57 black male mice [1]; 20 mg/kg po for 8 days): 251 ± 36 ng/g tissue
- Inhibitory Rate (%) DA (C57 black male mice [1]; 60 mg/kg po for 8 days): 20.8%
- Inhibitory Rate (%) DOPAC (C57 black male mice [1]; 60 mg/kg po for 8 days): 23.0%
- DA (ng/g tissue) (C57 black male mice [1]; 60 mg/kg po for 8 days): 2894 ± 750 ng/g tissue
- DOPAC (ng/g tissue) (C57 black male mice [1]; 60 mg/kg po for 8 days): 202 ± 52 ng/g tissue
- inhibitory effect on dopamine depletion induced by MPTP (C57 black mice): does not show such effect

SMILES: CN1C(=O)CN=C(c2ccccc2)c2cc(Cl)ccc21 [DZP, Diazepam]
- Inhibitory Rate (%) DA (C57 black male mice [1]; 5 mg/kg po for 8 days): 24.3%
- Inhibitory Rate (%) DOPAC (C57 black male mice [1]; 5 mg/kg po for 8 days): 18.3%
- DA (ng/g tissue) (C57 black male mice [1]; 5 mg/kg po for 8 days): 3356 ± 451 ng/g tissue
- DOPAC (ng/g tissue) (C57 black male mice [1]; 5 mg/kg po for 8 days): 208 ± 28 ng/g tissue

SMILES: CCC1(C)CC(=O)NC1=O (centres unmarked) [ESM, Ethosuximide]
- Inhibitory Rate (%) DA (C57 black male mice [1]; 600 mg/kg po for 8 days): −18.7%
- Inhibitory Rate (%) DOPAC (C57 black male mice [1]; 600 mg/kg po for 8 days): −12.9%
- DA (ng/g tissue) (C57 black male mice [1]; 600 mg/kg po for 8 days): 1008 ± 182 ng/g tissue
- DOPAC (ng/g tissue) (C57 black male mice [1]; 600 mg/kg po for 8 days): 80 ± 10 ng/g tissue

SMILES: Nc1nnc(-c2cccc(Cl)c2Cl)c(N)n1 [LTG, 3,5-diamino-6-(2,3-dichlorophenyl)-1,2,4-triazine]
- Inhibitory Rate (%) DA (C57 black male mice [1]; 30 mg/kg po for 8 days): 51.6%
- Inhibitory Rate (%) DOPAC (C57 black male mice [1]; 30 mg/kg po for 8 days): 34.1%
- DA (ng/g tissue) (C57 black male mice [1]; 30 mg/kg po for 8 days): 4844 ± 676** ng/g tissue
- DOPAC (ng/g tissue) (C57 black male mice [1]; 30 mg/kg po for 8 days): 273 ± 31** ng/g tissue
- inhibitory effect on dopamine depletion induced by MPTP (C57 black mice): show an inhibitory effect

SMILES: CN1CC=C(c2ccccc2)CC1 [MPTP, 1-methyl-4-phenyl-1,2,3,6-tetrahydropyridine]
- contents of dopamine (DA), homovanillic acid (HVA) and DOPAC in the striatum (C57 black male mice [2]; [5]): significantly reduced
- contents of noradrenaline (NA), serotonin (5HT), MOPEG and 5HIAA in the striatum (C57 black male mice [2]; [5]): never affected
- reduction in the contents of dopamine and metabolites thereof in the striatum (C57 black male mice [2]; 14 days after last administration (FIG. 2)): irreversible

SMILES: CCC1(c2ccccc2)C(=O)NC(=O)NC1=O [PB, Phenobarbital]
- Inhibitory Rate (%) DA (C57 black male mice [1]; 40 mg/kg po for 8 days): 23.5%
- Inhibitory Rate (%) DOPAC (C57 black male mice [1]; 40 mg/kg po for 8 days): 16.3%
- DA (ng/g tissue) (C57 black male mice [1]; 40 mg/kg po for 8 days): 3310 ± 544 ng/g tissue
- DOPAC (ng/g tissue) (C57 black male mice [1]; 40 mg/kg po for 8 days): 200 ± 32 ng/g tissue

SMILES: O=C1NC(=O)C(c2ccccc2)(c2ccccc2)N1 [PHT, Phenytoin]
- Inhibitory Rate (%) DA (C57 black male mice [1]; 30 mg/kg po for 8 days): 37.4%
- Inhibitory Rate (%) DOPAC (C57 black male mice [1]; 30 mg/kg po for 8 days): 30.2%
- DA (ng/g tissue) (C57 black male mice [1]; 30 mg/kg po for 8 days): 4073 ± 454* ng/g tissue
- DOPAC (ng/g tissue) (C57 black male mice [1]; 30 mg/kg po for 8 days): 257 ± 30* ng/g tissue
- inhibitory effect on dopamine depletion induced by MPTP (C57 black mice): show an inhibitory effect

SMILES: CCCC(CCC)C(=O)[O-].[Na+] [VPA, Sodium valproate]
- Inhibitory Rate (%) DA (C57 black male mice [1]; 800 mg/kg po for 8 days): 17.5%
- Inhibitory Rate (%) DOPAC (C57 black male mice [1]; 800 mg/kg po for 8 days): 13.2%
- DA (ng/g tissue) (C57 black male mice [1]; 800 mg/kg po for 8 days): 2984 ± 468 ng/g tissue
- DOPAC (ng/g tissue) (C57 black male mice [1]; 800 mg/kg po for 8 days): 187 ± 29 ng/g tissue

SMILES: NS(=O)(=O)Cc1noc2ccccc12 [ZNS, 3-sulfamoylmethyl-1,2-benzisoxazole]
- inhibitory effect on the MPTP-induced reduction in the contents of dopamine and DOPAC in the striatum (C57 black male mice [1]; [3]): dose-dependent inhibitory effect
- inhibitory effect on the MPTP-induced reduction in the contents of dopamine and DOPAC in the striatum (C57 black male mice [1]; [4]): dose-dependent inhibitory effect
- Inhibitory Rate (%) DA (C57 black male mice [1]; 10 mg/kg po for 8 days): 22.3%
- Inhibitory Rate (%) DOPAC (C57 black male mice [1]; 10 mg/kg po for 8 days): 29.8%
- DA (ng/g tissue) (C57 black male mice [1]; 10 mg/kg po for 8 days): 3797 ± 201* ng/g tissue
- DOPAC (ng/g tissue) (C57 black male mice [1]; 10 mg/kg po for 8 days): 221 ± 11* ng/g tissue
- Inhibitory Rate (%) DA (C57 black male mice [1]; 30 mg/kg po for 8 days): 80.3%
- Inhibitory Rate (%) DOPAC (C57 black male mice [1]; 30 mg/kg po for 8 days): 82.1%
- DA (ng/g tissue) (C57 black male mice [1]; 30 mg/kg po for 8 days): 7373 ± 685** ng/g tissue
- DOPAC (ng/g tissue) (C57 black male mice [1]; 30 mg/kg po for 8 days): 370 ± 27** ng/g tissue
- Inhibitory Rate (%) DA (C57 black male mice [1]; [6]): 97.2%
- Inhibitory Rate (%) DOPAC (C57 black male mice [1]; [6]): 109.1%
- Inhibitory Rate (%) DA (C57 black male mice [1]; [7]): ~100%
- Inhibitory Rate (%) DOPAC (C57 black male mice [1]; [7]): ~100%
- DA (ng/g tissue) (C57 black male mice [1]; 100 mg/kg po for 8 days): 8434 ± 336** ng/g tissue
- DOPAC (ng/g tissue) (C57 black male mice [1]; 100 mg/kg po for 8 days): 447 ± 24** ng/g tissue
